# Reference: patent US5484803A, “Transcutaneous in vivo activation of photosensitive agents in blood” (priority 1995, dated 1996)
# Columns and labels:
# [1] = In vitro photodegradation of BPD in mouse blood; type: physicochemical; conditions: for photodegraded BPD, Dose / Photodegraded BPD: in vitro
# Protocol: Determination of BPD Concentration in Plasma: Plasma samples were obtained by centrifugation of blood collected from mice and stored frozen at -20° C. until assessment. The concentration of BPD in the samples was determined by fluorometry using a Jasco Model FP-770 (Japan Spectroscopic Co.) spectrofluorometer and a microcuvette (Far UV Quartz Cell, Starna Cells Inc.). Excitation and emission wavelengths were 439 and 699 nm, respectively. Plasma samples were diluted 20-fold with PBS containing 1% Triton® X-100 immediately before fluorescence was determined. BPD standards were prepared in 5% mouse plasma in PBS with 1% Triton® X-100. Under these conditions the relationship between the concentration of BPD and units of fluorescence was linear (correlation coefficient >0.99) for concentrations between 0.1 ng/ml and 1 μg/ml. The limit of detection was below 0.1 ng/ml sample which corresponded to 2 ng/ml plasma. […] The 699 nm fluorescence peak of BPD was virtually free from any interference.
# In order to assess the amount of light penetrating the tissues, in vitro experiments with mouse blood were carried out. The same light source was used, therefore the spectrum of light was the same. The light doses in this experiment were selected to mimic the doses in the in vivo experiments.
# Liposomal BPD was added to freshly obtained heparinized mouse blood to achieve a concentration of 1 μg/ml, following which […] aliquots of blood were dispensed into 35 mm diameter petri dishes, which were placed in the light box and exposed to red light. The dishes were irradiated in the light box from below only. The intensity of light was 35 mW/cm^2. Three different light doses, entailing exposure of 30 min, 1 hour and 1.5-hour, were 63, 126 and 189 J/cm^2, respectively. Duplicate dishes were kept covered with aluminum foil. Immediately following light exposure, the blood was collected from the dishes. Then the plasma was separated by centrifugation. The control unexposed samples were processed at time points corresponding to the light exposed samples.
# The concentration of BPD in plasma separated from light-exposed and unexposed blood was determined by fluorescence. About 51-83% of BPD was degraded by the ranges of light doses used.
# P815 cells = assay: Surviving clonogenic P815 cells in mouse blood; type: in vivo, DBA/2 mice; conditions: average of 3 mice/group
# Protocol: (§1) Male mature DBA/2 and Balb/c mice were injected intravenously with P815 and L1210 cells, respectively, preincubated for 1 hour with BPD (liposomal) at 100 ng/ml. Immediately before animal injection, an additional 2 μg of BPD was added to the syringes containing cells. […] One group of mice (shaved and depilated) was exposed immediately to red light (600-900 nm) in the light box for 1.5 hours (162 J/cm^2); the other group was kept in the dark as the control.
# (§2) Immediately after exposure to light, blood samples were obtained by a heart puncture under halothane anesthesia. The concentration of BPD in plasma of light-exposed and control mice was determined by fluorescence. The number of clonogenic tumor cells in mouse blood was determined by culturing blood samples in culture medium supplemented with 10% bovine serum, using a limiting dilution assay protocol.
# L1210 cells = assay: Surviving clonogenic L1210 cells in mouse blood; type: in vivo, Balb/c mice; conditions: for Surviving cells in blood: average of 3 mice/group
# Protocol: as §1, §2
# Red blood cells = conditions: after the virucidal treatment; cited from earlier work
# mice skin = assay: Skin photosensitivity and skin changes, transcutaneous activation study; type: in vivo
# mouse blood = assay: Blood parameters two weeks after treatment (Coulter Counter); type: in vivo, Balb/c mice; conditions: for HB (hemoglobin) / Hct (hematocrit) / MCV / PLT (platelet count) / RBC / WBC: 2 weeks
# Protocol: Blood Tests: Blood was drawn into syringes containing 50 μl of heparin (1000 units/ml saline). Blood samples (0.45 ml) from at least 1 mouse per time point were sent to the Diagnostic Laboratory at the University Hospital, University of British Columbia site, for analysis by a Coulter Counter. Blood morphology was determined on blood films prepared from selected samples by a laboratory technologist.
# Six Balb/c mice (22±1 g weight) were prepared as described above. Five mice were injected twice (24 hour interval) with BPD from DMSO stock (not liposomal BPD) and exposed to light 1 hour after the injection. One mouse was not injected but was exposed to light (light-only control). During the first treatment the mice were injected with 15 μg BPD/mouse in 200 μl of PBS. During the second treatment the mice were injected with 20 μg BPD/mouse (0.9 mg/kg). A single mouse was used as a control for both treatments.
# Immediately post-injection (on both occasions) the animals were kept for 1 hour in the dark and then were placed in individual plastic containers (9×4×5 cm), which were placed in the light box and exposed to light. The individual mice were removed from the light box at different intervals: 15, 30, 45, 60 and 75 min, respectively. The light doses delivered at the surface of the skin were 27, 54, 81, 108 and 135 J/cm^2, respectively. On the second occasion the same light doses were used; however, mice receiving higher light doses on day 1 received lower doses on day 2. The control mouse was exposed to light for 60 min on both occasions. During light exposure, the mice were constantly observed for signs of discomfort or itching. After the second light exposure, the mice were observed daily for a period of 2 weeks for appearance of the skin and general pattern of behavior.
# Two weeks post-treatment blood samples were obtained from each mouse by a heart puncture, under halothane anesthesia. Then the mice were sacrificed and autopsied. Their spleen, liver and kidneys were weighed.
# [2] = mouse 1, light 27 then 135 J/cm^2
# [3] = mouse 2, light 54 then 108 J/cm^2
# [4] = mouse 3, light 81 then 81 J/cm^2
# [5] = mouse 4, light 108 then 54 J/cm^2
# [6] = mouse 5, light 135 then 27 J/cm^2
substance,measurement,setting,value
benzoprophyrin derivative monoacid ring A [BPD],BPD concentration in plasma separated from blood,"[1]; 0 h, no light, BPD 1 μg/ml blood",0.760 µg/mL
same,BPD concentration in plasma separated from blood,"[1]; 1 1/2 h, 189 J/cm^2",0.144 µg/mL
same,BPD concentration in plasma separated from blood,"[1]; 1 1/2 h, no light",0.830 µg/mL
same,BPD concentration in plasma separated from blood,"[1]; 1/2 h, 63 J/cm^2",0.394 µg/mL
same,BPD concentration in plasma separated from blood,"[1]; 1/2 h, no light",0.806 µg/mL
same,BPD degraded in vitro,"[1]; 63-189 J/cm^2, about",51-83%
same,BPD concentration in plasma separated from blood,"[1]; 1 h, 126 J/cm^2",0.220 µg/mL
same,BPD concentration in plasma separated from blood,"[1]; 1 h, no light",0.810 µg/mL
same,"photodegraded BPD, Dose",[1]; 63 J/cm^2,0.412 µg/mL
same,Photodegraded BPD,"[1]; 63 J/cm^2, 1/2 h, 30 min",51%
same,"photodegraded BPD, Dose",[1]; 126 J/cm^2,0.590 µg/mL
same,Photodegraded BPD,"[1]; 126 J/cm^2, 1 h",73%
same,"photodegraded BPD, Dose",[1]; 189 J/cm^2,0.686 µg/mL
same,Photodegraded BPD,"[1]; 189 J/cm^2, 1 1/2 h, 90 min",83%
same,Surviving cells in blood,P815 cells; Dark control,50 P815 cells/2 ml blood/mouse
same,Surviving cells in blood,P815 cells; Light exposed (162 J/cm^2),8 P815 cells/2 ml blood/mouse
same,Surviving cells in blood,L1210 cells; Dark control,234 L1210 cells/2 ml blood/mouse
same,Surviving cells in blood,L1210 cells; Light exposed (162 J/cm^2),21 L1210 cells/2 ml blood/mouse
same,destruction of BPD pre-loaded tumor cells,L1210 cells; whole body exposure to red light (L1210 and P815 examples),a large number of BPD pre-loaded tumor cells were destroyed
same,red blood cell viability,Red blood cells,appeared viable
same,skin photosensitivity,"mice skin; 0.9 mg/kg liposomal BPD, 54-162 J/cm^2",did not cause skin photosensitivity
same,changes of the skin,"mice skin; immediately or during the 2 week post-exposure period, 0.9 mg/kg, 30 mW/cm^2",no changes of the skin were observed
same,HB (hemoglobin),mouse blood; [2],122 g/L
same,Hct (hematocrit),mouse blood; [2],0.352
same,MCV,mouse blood; [2],49.5 fL
same,PLT (platelet count),mouse blood; [2],328 10^6 /ml
same,RBC,mouse blood; [2],7.11 10^9 /ml
same,WBC,mouse blood; [2],4.0 10^6 /ml
same,HB (hemoglobin),mouse blood; [3],126 g/L
same,Hct (hematocrit),mouse blood; [3],0.382
same,MCV,mouse blood; [3],49.2 fL
same,PLT (platelet count),mouse blood; [3],274 10^6 /ml
same,RBC,mouse blood; [3],7.76 10^9 /ml
same,WBC,"mouse blood; mouse 2, light 54 then 108 J/cm^2, platelet aggregate may contribute",14.7 10^6 /ml
same,HB (hemoglobin),mouse blood; [4],124 g/L
same,Hct (hematocrit),mouse blood; [4],0.365
same,MCV,mouse blood; [4],48.9 fL
same,PLT (platelet count),mouse blood; [4],119 10^6 /ml
same,RBC,mouse blood; [4],7.46 10^9 /ml
same,WBC,mouse blood; [4],8.2 10^6 /ml
same,HB (hemoglobin),mouse blood; [5],123 g/L
same,Hct (hematocrit),mouse blood; [5],0.364
same,MCV,mouse blood; [5],47.6 fL
same,PLT (platelet count),mouse blood; [5],438 10^6 /ml
same,RBC,mouse blood; [5],7.65 10^9 /ml
same,WBC,mouse blood; [5],7.6 10^6 /ml
same,HB (hemoglobin),mouse blood; [6],108 g/L
same,Hct (hematocrit),mouse blood; [6],0.316
same,MCV,mouse blood; [6],48.8 fL
same,PLT (platelet count),mouse blood; [6],134 10^6 /ml
same,RBC,mouse blood; [6],6.47 10^9 /ml
same,WBC,mouse blood; [6],2.9 10^6 /ml
same,all blood values (Tables 3 and 4),mouse blood; two weeks post-treatment,within normal ranges
